Experimental data published in patent US7709223B2, “Method for detecting bacteria with chromogenic substrates for β-D-ribofuranosidase” (priority 2001, dated 2010).
Counter-ions that a name gives are not always drawn.

Experiments:
Assay type in all cases: cell-based
Aeromonas caviae = experiment: Hydrolysis on Columbia agar with ferric ammonium citrate; parameters: key to the marks not given beside the values; conditions: Aeromonas caviae NCTC 10852
Method: (§1) The chromogenic β-D-ribofuranoside substrate was added to Columbia agar at a substrate concentration of 300 mg/l. Ferric ammonium citrate was included at 500 mg/l. All ingredients were autoclaved at 116° C. for 20 minutes to ensure sterilisation. Agar plates were then prepared in 90 mm petri dishes. The substrate caused a yellow colouration of the agar.
(§2) For each strain tested, a bacterial suspension was prepared in sterile deionised water at an inoculum of approximately 1.5×10^8 colony forming units per ml. This was achieved using a densitometer. 1 μl of each bacterial suspension was then inoculated onto each plate using a multipoint inoculator. Strains were inoculated in parallel onto Columbia agar containing ferric ammonium citrate with no substrate (negative control).
(§3) After 18 hours incubation, strains were examined visually for the presence of colour. Any strains producing a black colouration on substrate containing media but not on the negative control plates were deemed to be hydrolysing the substrate.

C. freundii = experiment: as above; parameters: key to the marks not given beside the values
Method: as §1, §2, §3

E. cloacae = experiment: as above; parameters: key to the marks not given beside the values
Method: as §1, §2, §3

Salmonella orthmarchen = experiment: as above; parameters: key to the marks not given beside the values; conditions: Salmonella orthmarchen SAX 59
Method: as §1, §2, §3

Salmonella typhimurium = experiment: as above; parameters: key to the marks not given beside the values; conditions: Salmonella typhimurium NCTC 74
Method: as §1, §2, §3

Vibrio fluvialis = experiment: as above; parameters: key to the marks not given beside the values; conditions: Vibrio fluvialis NCTC 11327
Method: as §1, §2, §3

Vibrio metschnikovii = experiment: as above; parameters: key to the marks not given beside the values; conditions: Vibrio metschnikovii NCTC 8443
Method: as §1, §2, §3

Gram negative bacteria = experiment: Hydrolysis on Columbia agar with ferric ammonium citrate, strain panel; conditions: 120 Gram negative bacteria tested
Method: (§4) The ribofuranoside derivative of dihydroxyflavone was tested with 194 distinct strains of bacteria. The choice of bacteria included a wide range many of which are important pathogens or commensals commonly isolated from pathological samples.
as §1, §2, §3

Gram-positive bacteria = experiment: as above; conditions: Gram-positive bacteria tested
Method: as §4, §1, §2, §3

Enterococcus gallinarum = experiment: Hydrolysis on Columbia agar with ferric ammonium citrate; conditions: Enterococcus gallinarum NCTC 11428
Method: as §1, §2, §3

[1] = tested on: Haemolytic streptococcus A; experiment: as above
Method: as §1, §2, §3

[2] = tested on: Haemolytic streptococcus B; experiment: as above
Method: as §1, §2, §3

Listeria innocua = experiment: as above; conditions: Listeria innocua PHLS wild
Method: as §1, §2, §3

Listeria ivanovii = experiment: as above; conditions: Listeria ivanovii PHLS wild
Method: as §1, §2, §3

M. morganii = experiment: as above
Method: as §1, §2, §3

P. aeruginosa = experiment: as above
Method: as §1, §2, §3

P. rettgeri = experiment: as above; conditions: P. rettgeri NCTC 7475
Method: as §1, §2, §3

Providencia stuartii = experiment: as above
Method: as §1, §2, §3

[3] = tested on: Staphylococcus epidermidis; experiment: as above
Method: as §1, §2, §3

Streptococcus crista = experiment: as above; conditions: Streptococcus crista NCTC 12479
Method: as §1, §2, §3

Streptococcus mitis = experiment: as above; conditions: Streptococcus mitis NCTC 12261
Method: as §1, §2, §3

Streptococcus oralis = experiment: as above; conditions: Streptococcus oralis NCTC11427
Method: as §1, §2, §3

Streptococcus pneumoniae = experiment: as above; conditions: Streptococcus pneumoniae NCTC 7465
Method: as §1, §2, §3

Streptococcus sanguis = experiment: as above; conditions: Streptococcus sanguis NCTC 7863
Method: as §1, §2, §3

[4] = tested on: Streptococcus vestibularis; experiment: as above; conditions: Streptococcus vestibularis NCTC 12166
Method: as §1, §2, §3

Vibrio alcaligenes = experiment: as above; conditions: Vibrio alcaligenes NCTC 12160
Method: as §1, §2, §3

Vibrio anguillarum = experiment: as above; conditions: Vibrio anguillarum NCTC 12159
Method: as §1, §2, §3

Vibrio cholerae = experiment: as above
Method: as §1, §2, §3

Vibrio furnissii = experiment: as above; conditions: Vibrio furnissii NCTC 11218
Method: as §1, §2, §3

Vibrio mimicus = experiment: as above; conditions: Vibrio mimicus NCTC 11435
Method: as §1, §2, §3

Y. enterocolitica = experiment: as above
Method: as §1, §2, §3

enterococci = experiment: as above; conditions: enterococci (‘faecal streptococci’)
Method: as §1, §2, §3

With O=c1cc(-c2ccc(OC3OC(CO)C(O)C3O)c(O)c2)oc2ccccc12 [DHF-riboside, 3′,4′-Dihydroxyflavone-4′-β-D-ribofuranoside sodium salt] the “β-Riboside (hydrolysis)” value (Aeromonas caviae) was “++”, the “β-Riboside (hydrolysis)” value (C. freundii; C. freundii CFR 1) was “++” and the “β-Riboside (hydrolysis)” value (C. freundii; C. freundii CFR 2) was “++”. The “β-Riboside (hydrolysis)” value (C. freundii; C. freundii CFR 3) was “++”, the “β-Riboside (hydrolysis)” value (C. freundii; C. freundii CFR 4) was “++” and the “β-Riboside (hydrolysis)” value (C. freundii; C. freundii NCTC 9750) was “++”. For the same compound, the “β-Riboside (hydrolysis)” value (E. cloacae; E. cloacae ECL 1) was “++”, the “β-Riboside (hydrolysis)” value (E. cloacae; E. cloacae ECL 2) was “++” and the “β-Riboside (hydrolysis)” value (E. cloacae; E. cloacae ECL 3) was “++”. The “β-Riboside (hydrolysis)” value (E. cloacae; E. cloacae ECL 4) was “++”, the “β-Riboside (hydrolysis)” value (E. cloacae; E. cloacae NCTC 11936) was “++” and the “β-Riboside (hydrolysis)” value (Salmonella orthmarchen) was “++”. The “β-Riboside (hydrolysis)” value (Salmonella typhimurium) was “++”, the “β-Riboside (hydrolysis)” value (Vibrio fluvialis) was “++” and the “β-Riboside (hydrolysis)” value (Vibrio metschnikovii) was “++”. For the same compound, the “Share of strains that hydrolysed the substrate” value (Gram negative bacteria) was 68.3%, the “Share of strains active with the substrate” value (Gram-positive bacteria) was 30.8% and the “β-Ribofuranoside (hydrolysis)” value (Enterococcus gallinarum) was “+”. For the same compound, the “β-Ribofuranoside (hydrolysis)” value ([1]; Reference No. 1) was “−”, the “β-Ribofuranoside (hydrolysis)” value ([1]; Reference No. 2) was “−” and the “β-Ribofuranoside (hydrolysis)” value ([1]; Reference No. 3) was “−”. For the same compound, the “β-Ribofuranoside (hydrolysis)” value ([2]; Reference No. 1) was “−”, the “β-Ribofuranoside (hydrolysis)” value ([2]; Reference No. 2) was “−” and the “β-Ribofuranoside (hydrolysis)” value ([2]; Reference No. 3) was “−”. For the same compound, the “β-Ribofuranoside (hydrolysis)” value (Listeria innocua) was “−”, the “β-Ribofuranoside (hydrolysis)” value (Listeria ivanovii) was “+” and the “β-Riboside (hydrolysis)” value (M. morganii; M. morganii MMO 1) was “+”. For the same compound, the “β-Riboside (hydrolysis)” value (M. morganii; M. morganii MMO 2) was “+”, the “β-Riboside (hydrolysis)” value (M. morganii; M. morganii NCTC 235) was “−” and the “β-Riboside (hydrolysis)” value (P. aeruginosa; P. aeruginosa ATCC 10145) was “+”. The “β-Riboside (hydrolysis)” value (P. aeruginosa; P. aeruginosa NCTC 10662) was “+”, the “β-Riboside (hydrolysis)” value (P. rettgeri) was “+” and the “β-Riboside (hydrolysis)” value (Providencia stuartii; Providencia stuartii PST 1) was “+”. The “β-Riboside (hydrolysis)” value (Providencia stuartii; Providencia stuartii PST 2) was “+”, the “β-Ribofuranoside (hydrolysis)” value ([3]; Staphylococcus epidermidis RB60) was “++” and the “β-Ribofuranoside (hydrolysis)” value ([3]; Staphylococcus epidermidis RB62) was “+”. For the same compound, the “β-Ribofuranoside (hydrolysis)” value ([3]; Staphylococcus epidermidis RB63) was “+”, the “β-Ribofuranoside (hydrolysis)” value ([3]; Staphylococcus epidermidis RB64) was “+” and the “β-Ribofuranoside (hydrolysis)” value ([3]; Staphylococcus epidermidis RB65) was “+”. For the same compound, the “β-Ribofuranoside (hydrolysis)” value (Streptococcus crista) was “−”, the “β-Ribofuranoside (hydrolysis)” value (Streptococcus mitis) was “−” and the “β-Ribofuranoside (hydrolysis)” value (Streptococcus oralis) was “−”. The “β-Ribofuranoside (hydrolysis)” value (Streptococcus pneumoniae) was “−”, the “β-Ribofuranoside (hydrolysis)” value (Streptococcus sanguis) was “−” and the “β-Ribofuranoside (hydrolysis)” value [4] was “−”. The “β-Riboside (hydrolysis)” value (Vibrio alcaligenes) was “−”, the “β-Riboside (hydrolysis)” value (Vibrio anguillarum) was “−” and the “β-Riboside (hydrolysis)” value (Vibrio cholerae; Vibrio cholera NCTC 6585) was “−”. The “β-Riboside (hydrolysis)” value (Vibrio cholerae; Vibrio cholera NCTC 7270) was “−”, the “β-Riboside (hydrolysis)” value (Vibrio cholerae; Vibrio cholera NCTC 8021) was “−” and the “β-Riboside (hydrolysis)” value (Vibrio cholerae; Vibrio cholera NCTC 10732) was “−”. The “β-Riboside (hydrolysis)” value (Vibrio cholerae; Vibrio cholera NCTC 12945) was “−”, the “β-Riboside (hydrolysis)” value (Vibrio cholerae; Vibrio cholerae NCTC 7254) was “−” and the “β-Riboside (hydrolysis)” value (Vibrio cholerae; Vibrio cholerae NCTC 8042) was “−”. The “β-Riboside (hydrolysis)” value (Vibrio cholerae; Vibrio cholerae NCTC 10255) was “−”, the “β-Riboside (hydrolysis)” value (Vibrio cholerae; Vibrio cholerae NCTC 10954) was “−” and the “β-Riboside (hydrolysis)” value (Vibrio furnissii) was “−”. For the same compound, the “β-Riboside (hydrolysis)” value (Vibrio mimicus) was “−”, the “β-Riboside (hydrolysis)” value (Y. enterocolitica; Y. enterocolitica NCTC 10460) was “−” and the “β-Riboside (hydrolysis)” value (Y. enterocolitica; Y. enterocolitica NCTC 11176) was “−”. The “β-Riboside (hydrolysis)” value (Y. enterocolitica; Y. enterocolitica NCTC 11177) was “−”, the “β-Riboside (hydrolysis)” value (Y. enterocolitica; Y. enterocolitica NCTC 11600) was “−” and the “Activity with the substrate” value (enterococci) was “variable”.
